# From publication PMC6720094, “Comparative pharmacokinetics of oxyresveratrol alone and in combination with piperine as a bioenhancer in rats” (BMC Complementary and Alternative Medicine, 2019)
# Where two headings read alike, the source gives them in different places.
# Columns and labels:
# [1] = rat, in vivo, cited from earlier work
# [2] = Tissue distribution, tissue to plasma ratio (Kp) in rats; type: in vivo
# [3] = rat, in vivo, ip, 40 mg/kg; cited from earlier work
# male Wistar rats = assay: Tolerability in rats (AST, ALT, creatinine, physical appearance); type: in vivo, rat
# Experimental: Rats weighing more than 400 g were enrolled in the pharmacokinetic experiments. All rats were placed into metabolic cages and fasted overnight before the pharmacokinetic experiments. The rats were divided randomly into four groups (n = 6 in each): oxyresveratrol 100 mg/kg p.o., oxyresveratrol 100 mg/kg plus piperine 10 mg/kg p.o., oxyresveratrol 10 mg/kg i.v., and oxyresveratrol 10 mg/kg plus piperine 1 mg/kg i.v. All test formulations were freshly prepared by dissolving the compounds in 40% DMSO/NSS to obtain clear solution. The preparations were administered by oral gavage or intravenous administration via the lateral tail vein. All rats were anaesthetized with 5% isoflurane by chamber induction method to prevent pain and injury during drug administration and blood collection. The blood collection was conducted at 0, 0.083 (5 min), 0.25 (15 min), 0.5 (30 min), 1, 2, 4, 8, 16 and 24 h in unconscious rats. For tissue collection, euthanization with overdose isoflurane > 10% by chamber induction method was conducted at 0.083 (5 min), 1, 2 and 4 h after oral gavage or intravenous administration, and death was confirmed by exsanguination. […] Plasma samples were collected at baseline (0 h) and 24 h from a subset of rats for determination of AST, ALT and creatinine concentrations, performed by Professional Laboratory Management Crop Co., Ltd. Determination of the creatinine level was performed by the chemiluminescence method, while AST and ALT determination was performed with a kinetic method and measured using an automated analyzer (Cobas 6000; Hoffmann–La Roche, Ltd.).
# in vivo = settings: rat
# Experimental: Rats weighing more than 400 g were enrolled in the pharmacokinetic experiments. All rats were placed into metabolic cages and fasted overnight before the pharmacokinetic experiments. The rats were divided randomly into four groups (n = 6 in each): oxyresveratrol 100 mg/kg p.o., oxyresveratrol 100 mg/kg plus piperine 10 mg/kg p.o., oxyresveratrol 10 mg/kg i.v., and oxyresveratrol 10 mg/kg plus piperine 1 mg/kg i.v. All test formulations were freshly prepared by dissolving the compounds in 40% DMSO/NSS to obtain clear solution. The preparations were administered by oral gavage or intravenous administration via the lateral tail vein. […] Plasma samples were collected at baseline (0 h) and 24 h from a subset of rats for determination of AST, ALT and creatinine concentrations, performed by Professional Laboratory Management Crop Co., Ltd. Determination of the creatinine level was performed by the chemiluminescence method, while AST and ALT determination was performed with a kinetic method and measured using an automated analyzer (Cobas 6000; Hoffmann–La Roche, Ltd.). […]
# The pharmacokinetic parameters were calculated by non–compartmental analysis using PK Solution 2.0 software (Summit Research Service). […] The absolute oral bioavailability of oxyresveratrol was calculated as (AUCp.o./dosep.o.)/(AUCi.v./dosei.v.). […]
# P–glycoprotein [4] = settings: cited from earlier work
# physchem = settings: %Recovery (stability)
# UGT [5] = system: UGT; parameters: method as in PMID 17487234; settings: cited from earlier work
# UGT [6] = system: UGT; parameters: method as in PMID 3917507; settings: mice ref 19, cited from earlier work
# P–glycoprotein [7] = system: P–glycoprotein; parameters: method as in PMID 12130727; settings: cited from earlier work
# [8] = intravenous, oxyresveratrol 10 mg/kg (+ piperine 1 mg/kg in combination), postdose (24 h)
# [9] = intravenous, oxyresveratrol 10 mg/kg (+ piperine 1 mg/kg in combination), predose (0 h) baseline
# [10] = oral, oxyresveratrol 100 mg/kg (+ piperine 10 mg/kg in combination), postdose (24 h)
# [11] = oral, oxyresveratrol 100 mg/kg (+ piperine 10 mg/kg in combination), predose (0 h) baseline
smiles,measurement,setting,value
"Oc1cc(O)cc(C=Cc2ccc(O)cc2O)c1 [Oxyresveratrol, 2,4,3′,5′–tetrahydroxystilbene]",Tmax,[1]; po,approximately 15 min
same,Absolute oral bioavailability,[1],10–15%
same,%Recovery (stability),100 ng/mL,72.84%
same,%Recovery (stability),400 ng/mL,70.43%
same,Kp,"[2]; male, Wistar, in vivo, 100 mg/kg, rat, oral gavage, from 5 min to 4 h, read-out: Tissue to plasma ratio of oxyresveratrol, other internal organs (not stomach, small intestine)",1 to 100
same,Kp at 5 min,"[2]; male, Wistar, rat, in vivo, iv",10 to 100
same,Oxyresveratrol level in the brain,"[2]; rat, 1, 2 and 4 h after intravenous administration",Very low levels
same,Concentration reaching the brain,[3],only a minimal concentration reached the brain
same,ALT,male Wistar rats; [8],5.80 ± 1.09 U/L
same,AST,male Wistar rats; [8],45.40 ± 3.78 U/L
same,Creatinine,male Wistar rats; [8],0.32 ± 0.08 mg/dL
same,ALT,male Wistar rats; [9],5.00 ± 0.00 U/L
same,AST,male Wistar rats; [9],42.00 ± 7.15 U/L
same,Creatinine,male Wistar rats; [9],0.25 ± 0.15 mg/dL
same,Physical appearance,"male Wistar rats; male Wistar rats, pre-dose and post-dose (24 h), i.v. and oral",normal physical appearance
same,ALT,male Wistar rats; [10],6.83 ± 3.25 U/L
same,AST,male Wistar rats; [10],40.83 ± 22.39 U/L
same,Creatinine,male Wistar rats; [10],0.17 ± 0.01 mg/dL
same,ALT,male Wistar rats; [11],9.40 ± 9.28 U/L
same,AST,male Wistar rats; [11],32.40 ± 16.47 U/L
same,Creatinine,male Wistar rats; [11],0.17 ± 0.01 mg/dL
same,dose excreted,"in vivo; Wistar, in vivo, iv, Percentage recovery of unchanged oxyresveratrol in urine",5 to 10%
same,Unchanged oxyresveratrol found in feces,in vivo; 0 to 48 h after intravenous dosing,< 1%
same,P–glycoprotein substrate,P–glycoprotein [4],substrate of P–glycoprotein
same,recovery at 100 ng/mL,physchem,92.6%
same,recovery at 400 ng/mL,physchem,86.3%
same,"recovery at 12 h, 10 ng/mL",physchem,63.5%
same,"recovery at 12 h, 100 ng/mL",physchem,73.5%
same,"recovery at 12 h, 400 ng/mL",physchem,68.2%
same,"recovery at 30 d, 10 ng/mL",physchem,72.4%
same,"recovery at 30 d, 100 ng/mL",physchem,85.8%
same,"recovery at 30 d, 400 ng/mL",physchem,81.1%
"O=C(/C=C/C=C/c1ccc2c(c1)OCO2)N1CCCCC1 [piperine, Piperine]",Hepatic microsomal activity of UGT in vitro,UGT [5],reduces
same,Decrease of in vivo UGT activity,UGT [6]; piperine 10 mg/kg p.o.,36%
same,Decrease of in vivo UGT activity,UGT [6]; piperine 25 mg/kg p.o.,55%
same,Inhibition of P–glycoprotein,P–glycoprotein [7],inhibit
